Laboratory results taken from patent US20250059188A1, “ARYLSULPHONAMIDE COMPOUNDS” (Anaxis Pharma Pty Ltd, priority 2021, published 2025).

What was measured:
human MLKL (full length) = human MLKL (full length) (Homo sapiens (Human), UniProt Q8NB16); assay: KINOMEscan binding assay, human MLKL (full length); details: equilibrium dissociation constant
Method in brief: (§1)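 Tagged kinase + immobilized ligand beads + compound; eluted kinase quantified by qPCR. Kinase source: T7 phage lysate (BL21-derived E. coli, 32 °C) or HEK-293 with DNA tag. 11-pt 3-fold series, 1% DMSO, top 30,000 nM (most). Hill fit, slope −1 → Kd.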

human RIPK3 = human RIPK3 (Homo sapiens (Human), UniProt Q9Y572); assay: KINOMEscan binding assay, human RIPK3; details: equilibrium dissociation constant
human RIPK3, sequence (Q9Y572 whole entry): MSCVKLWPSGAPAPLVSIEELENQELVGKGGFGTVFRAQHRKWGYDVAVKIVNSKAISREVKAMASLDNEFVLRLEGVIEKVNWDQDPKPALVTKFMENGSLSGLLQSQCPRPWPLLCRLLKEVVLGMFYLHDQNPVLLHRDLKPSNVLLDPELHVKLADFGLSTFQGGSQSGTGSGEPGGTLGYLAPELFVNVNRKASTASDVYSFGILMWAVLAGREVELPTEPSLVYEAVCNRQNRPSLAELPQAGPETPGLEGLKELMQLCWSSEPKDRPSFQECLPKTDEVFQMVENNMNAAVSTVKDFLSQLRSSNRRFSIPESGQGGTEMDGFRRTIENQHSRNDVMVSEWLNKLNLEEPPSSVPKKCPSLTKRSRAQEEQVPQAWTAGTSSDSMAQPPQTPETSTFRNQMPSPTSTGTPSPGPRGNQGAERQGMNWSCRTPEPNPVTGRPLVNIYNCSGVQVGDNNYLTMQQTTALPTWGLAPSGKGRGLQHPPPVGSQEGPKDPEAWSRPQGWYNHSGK
Method in brief: as §1

mouse MLKL (full length) = mouse MLKL (full length) (Mus musculus (Mouse), UniProt Q9D2Y4); assay: KINOMEscan binding assay, mouse MLKL (full length); details: equilibrium dissociation constant
mouse MLKL (full length), sequence (Q9D2Y4 whole entry): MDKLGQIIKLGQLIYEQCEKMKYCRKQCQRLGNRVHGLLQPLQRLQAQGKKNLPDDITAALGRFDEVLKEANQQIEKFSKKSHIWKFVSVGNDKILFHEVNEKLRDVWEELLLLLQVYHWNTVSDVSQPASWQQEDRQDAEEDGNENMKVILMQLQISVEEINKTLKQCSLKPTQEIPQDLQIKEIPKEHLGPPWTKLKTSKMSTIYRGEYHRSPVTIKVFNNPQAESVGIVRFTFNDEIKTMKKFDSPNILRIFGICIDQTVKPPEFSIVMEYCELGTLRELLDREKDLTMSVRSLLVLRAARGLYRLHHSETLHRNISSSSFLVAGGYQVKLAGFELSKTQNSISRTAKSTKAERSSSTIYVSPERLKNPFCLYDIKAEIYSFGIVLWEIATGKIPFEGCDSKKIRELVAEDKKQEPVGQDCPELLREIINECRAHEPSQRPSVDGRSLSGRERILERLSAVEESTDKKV
Experimental: Binding affinity of the test compounds for human MLKL (full length), mouse MLKL (full length), human RIPK1 and human RIPK3 was determined using the KINOMEscan™ technology developed by DiscoverX (USA; http://www.discoverx.com). The assay was conducted according to manufacturer instructions.
Kinase assays. For most assays, kinase-tagged T7 phage strains were grown in parallel in 24-well blocks in an E. coli host derived from the BL21 strain. E. coli were grown to log-phase and infected with T7 phage from a frozen stock (multiplicity of infection=0.4) and incubated with shaking at 32° C. until lysis (90-150 minutes). The lysates were centrifuged (6,000×g) and filtered (0.2 μm) to remove cell debris. The remaining kinases were produced in HEK-293 cells and subsequently tagged with DNA for qPCR detection. […] The liganded beads were blocked with excess biotin and washed with blocking buffer (SeaBlock (Pierce), 1% BSA, 0.05% Tween 20, 1 mM DTT) to remove unbound ligand and to reduce non-specific phage binding. […] All reactions were performed in polypropylene 384-well plates in a final volume of 20 μL. […] The kinase concentration in the eluates was measured by qPCR.
An 11-point 3-fold serial dilution of each test compound was prepared in 100% DMSO at 100× final test concentration and subsequently diluted to 1× in the assay (final DMSO concentration=1%). Most Kos were determined using a compound top concentration=30,000 nM.
KD for each test compound was calculated with a standard dose-response curve using the Hill equation (equation (1)): […]
The Hill Slope was set to −1.
Curves were fitted using a non-linear least square fit with the Levenberg-Marquardt algorithm.

[1] = test system: Immortalised Mouse Dermal Fibroblasts (MDFs); assay: Inhibition of TSI induced necroptosis in mouse dermal fibroblasts (CellTitre-Glo); details: Mus musculus, Fibroblast, 3 h, MDF cells, TSI cocktail (TNF, Smac mimetic, IDN-6556), read-out: Inhibition of TSI-induced necroptosis (IC50 cell-based assay) in MDF
Experimental: Cellular Assay: Screening Compounds for Inhibition of TSI Induced Necroptosis in, 384 well plate format. • Cell Line ID: Immortalised Mouse Dermal Fibroblasts (MDFs). • Cell Concentration (cells/well): Final cell density is 2200 cells per well. • Cell growth medium: DMEM medium+7.4% Fetal Bovine Serum (FBS). Cells are cultured in Corning 150 cm^2 tissue culture flasks with vented caps at 37° C./10% CO2. • Incubation: Plates were incubated for 30 minutes following addition of compounds and then 3 hours incubation with death stimuli (TSI cocktail) at 37° C./10% CO2 in a humidified incubator. • Compound concentration: 36 μM starting concentration, 1:3 dilution, 10 point • DMSO final concentration (% v/v): 0.3%. Compounds in TSI Cocktail (T: TNF; S: Smac Mimetic; I: IDN-6556) and their Final Concentrations: • rhTNF (100 ng/ml) • Compound A (500 nM)—Smac mimetic, Tetralogic and SYNthesis med chem • IDN-6556 (10 μM)—Selleckchem (S7775)
The cellular assay was carried out according to the following steps: • 1. Each well was prepared by sequential addition of: • a. 40 μL of cell suspension (5.5×10^4 cells/mL) was added to each well to provide a final cell concentration of 2,200 cells per well. • b. After 24 hours, DMSO (control; columns 1-2 and 23-24) or compound in DMSO—addition was performed using acoustic transfer of nL volumes of stock compound to give final test concentrations of 36, 12, 4, 1.3, 0.44, 0.148, 0.049, 0.016, 0.005 and 0.002 μM. All wells were backfilled with DMSO to a final total volume in the well of 100 nL. • c. Following compound/DMSO addition in step (b), Plates were incubated for 30 minutes at 37° C./10% CO2 in a humidified incubator and then 10 μL of 5×TSI cocktail (except to positive controls; columns 2 and 24) was added to each well. • 2. After 3 hours, plate was removed from the 37° C. incubator and equilibrated to room temperature for 15 minutes. • 3. 15 μL of room temperature CellTitre-Glo2™ (Promega™) was added to each well. • 4. Shook plates for 2 minutes (˜600 rpm) and incubated at room temperature for 15 minutes to allow signal to stabilise. • 5. Read luminescence readout on a plate reader.
Percent viability was calculated for each compound according to equation (2): […]
10 point titration curves were fitted with the 4 parameter logistic nonlinear regression model and the IC50 reported reflect the inflection point of the curve for curve fitting.
• Assay involving the TSI cocktail (T: TNF; S: Smac mimetic; I: IDN-6556): TSI treatment ensures that cells specifically undergo necroptotic cell death. TNF activates the TNF receptor, Smac mimetic directs the signal away from proinflammatory signaling and toward the RIPK1/RIPK3-mediated cell death pathways, and IDN-6556 (Caspase inhibitor) ensures that the apoptotic response is blocked leaving only the programmed necrosis response. The compounds' activity (solution in DMSO) tested in this TSI-induced assay was evaluated by determining the number of viable cells in culture by measuring the amount of ATP present as measured by CelltiterGlo.

human RIPK1 = human RIPK1 (Homo sapiens (Human), UniProt Q13546); assay: KINOMEscan binding assay, human RIPK1; details: equilibrium dissociation constant
human RIPK1, sequence (Q13546 whole entry): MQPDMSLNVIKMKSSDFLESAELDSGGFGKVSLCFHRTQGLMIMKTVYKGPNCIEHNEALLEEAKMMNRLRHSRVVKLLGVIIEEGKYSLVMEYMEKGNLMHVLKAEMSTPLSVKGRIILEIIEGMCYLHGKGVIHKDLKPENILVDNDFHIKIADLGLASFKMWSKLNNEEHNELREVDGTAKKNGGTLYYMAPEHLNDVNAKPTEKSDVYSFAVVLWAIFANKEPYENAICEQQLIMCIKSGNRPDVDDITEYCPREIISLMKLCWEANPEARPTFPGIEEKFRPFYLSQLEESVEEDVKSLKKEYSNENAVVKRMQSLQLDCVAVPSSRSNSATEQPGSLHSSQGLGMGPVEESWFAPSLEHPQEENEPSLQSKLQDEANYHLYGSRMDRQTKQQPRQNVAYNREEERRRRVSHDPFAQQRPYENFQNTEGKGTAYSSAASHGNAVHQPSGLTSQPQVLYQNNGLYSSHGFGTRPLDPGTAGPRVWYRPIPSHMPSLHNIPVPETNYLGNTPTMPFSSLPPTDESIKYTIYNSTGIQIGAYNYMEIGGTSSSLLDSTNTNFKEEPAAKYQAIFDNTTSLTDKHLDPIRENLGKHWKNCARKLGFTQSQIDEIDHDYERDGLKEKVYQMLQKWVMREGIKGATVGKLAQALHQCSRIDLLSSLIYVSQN
Method in brief: as §1

human MLKL (full length), sequence (Q8NB16 whole entry): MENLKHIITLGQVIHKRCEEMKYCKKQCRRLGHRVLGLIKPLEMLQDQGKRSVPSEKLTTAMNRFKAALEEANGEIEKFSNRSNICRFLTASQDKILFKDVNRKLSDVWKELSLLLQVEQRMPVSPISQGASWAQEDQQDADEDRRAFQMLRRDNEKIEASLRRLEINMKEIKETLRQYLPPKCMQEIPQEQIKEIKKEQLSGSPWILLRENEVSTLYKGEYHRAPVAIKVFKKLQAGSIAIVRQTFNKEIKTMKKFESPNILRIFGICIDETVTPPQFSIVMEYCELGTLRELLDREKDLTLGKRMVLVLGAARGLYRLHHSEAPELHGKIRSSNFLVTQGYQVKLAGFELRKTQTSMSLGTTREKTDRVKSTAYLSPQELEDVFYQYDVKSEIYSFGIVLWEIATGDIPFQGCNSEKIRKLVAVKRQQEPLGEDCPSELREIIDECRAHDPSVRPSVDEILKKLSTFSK

Kd (human MLKL (full length)): 1 to 100 nM
Kd (human RIPK3): > 10000 nM
Kd (mouse MLKL (full length)): 1 to 100 nM
Kd (human RIPK1): > 10000 nM
Compound: Nc1ncc(-c2cnn(C3CCOCC3)c2)c2occ(-c3ccc(NS(=O)(=O)CC(F)(F)F)c(OCc4ccc(F)cc4)c3)c12 [Compound 11, N-(4-(4-amino-7-(1-(tetrahydro-2H-pyran-4-yl)-1H-pyrazol-4-yl)furo[3,2-c]pyridin-3-yl)-2-((4-fluorobenzyl)oxy)phenyl)-2,2,2-trifluoroethane-1-sulfonamide]
IC50 [1]: 1000 to 10000 nM
